Measurements from the supplement of paper PMC5412046.
Counter-ions that a name gives are not always drawn.

Assays:
[1] = test system: SB.mhdgc-1; assay: area under the dose-response curve of % viability (trapezoidal, 11 doses) (% viability x log10 concentration); higher = less cytotoxic; conditions: SB.mhdgc-1 (hereditary c.1380delA CDH1 gastric cancer)
Procedure, shortened: (§1)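 Each entry is viability relative to DMSO, given either at the highest concentration tested or as a trapezoidal area under the curve. Gastric cancer cells from hereditary or sporadic patients (500 cells in 5 μL medium per 1536 well) received compound in DMSO at 11 threefold-diluted concentrations, 23 nL by pintool. Luminescence from CellTiter-Glo was read after 48 h.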

[2] = test system: SB.msgc-1; assay: as above; conditions: SB.msgc-1 (sporadic gastric cancer)
Procedure, shortened: as §1

[3] = test system: SB.mhdgc-1; assay: viability at highest tested concentration (MAXR) relative to DMSO; higher = less cytotoxic; conditions: SB.mhdgc-1 (hereditary c.1380delA CDH1 gastric cancer)
Procedure, shortened: as §1

[4] = test system: SB.msgc-1; assay: as above; conditions: SB.msgc-1 (sporadic gastric cancer)
Procedure, shortened: as §1

| SMILES | area under the dose-response curve [1] | area under the dose-response curve [2] | viability [3] | viability [4] |
| --- | --- | --- | --- | --- |
| C[C@H]1COC/2=C1/C(=O)C(=O)C3=C4CCCC(C)(C)C4=CC=C23 [Cryptotanshinone] (top concentration 46.0829 µM) | 429 | 484 | 3.87% | 33.4% |
| CC(C)(O)/C=C\C(=O)[C@](C)(O)[C@H]1[C@H](O)C[C@]2(C)[C@@H]3CC=C4[C@@H](C=C(O)C(=O)C4(C)C)[C@]3(C)C(=O)C[C@@]12C [Cucurbitacin I] (top concentration 46.0829 µM) | 214 | 325 | 2.26% | 2.43% |
| CC(C)(O)CC[C@@H](O)[C@](C)(O)[C@H]1CC[C@@]2(O)C/3=C/C(=O)[C@@H]4C[C@@H](O)[C@@H](O)C[C@]4(C)[C@H]3CC[C@]12C [20-hydroxyecdysone] (top concentration 46.0829 µM) | 509 | 401 | 102% | 76.4% |
| O=[S+]([O-])(F)Cc1ccccc1 [PMSF] (top concentration 46.0829 µM) | 406 | 489 | 55.5% | 93.4% |
| OCc1ccccc1O[C@@H]1O[C@H](CO)[C@@H](O)[C@H](O)[C@H]1O [Salicin] (top concentration 46.0829 µM) | 509 | 466 | 119% | 93.9% |
| Cc1cccc(Nc2nc(N[C@@H]3CCCC[C@@H]3N)ncc2C(N)=O)c1 (top concentration 46.0829 µM) | 425 | 483 | 1.91% | 24.7% |
| O=C1CC[C@@]2(O)[C@H]3Cc4ccc(O)c5c4[C@@]2(CCN3CC2CC2)[C@H]1O5 [Naltrexone hydrochloride] (top concentration 46.0829 µM) | 607 | 605 | 98.3% | 116% |
| c1ccc2c(Cc3c[nH]c4ccccc34)c[nH]c2c1 [Diindolylmethane] (top concentration 46.0829 µM) | 351 | 241 | 2.05% | 0.925% |
| CO[C@@H]1C(N(C)C(=O)c2ccccc2)C[C@H]2O[C@]1(C)n1c3ccccc3c3c4c(c5c6ccccc6n2c5c31)C(=O)NC4=O (some centres not stated) [Stauprimide] (top concentration 46.0829 µM) | 386 | 301 | 41.7% | 34.8% |
| O=C(Nc1cccc2c(=O)cc(-c3nnn[nH]3)oc12)c1ccc(OCCCCc2ccccc2)cc1 [Pranlukast hydrate] (top concentration 46.0829 µM) | 499 | 316 | 9.85% | 30.2% |
| O=C(O)c1ccc(-n2nc(-c3ccccc3O)nc2-c2ccccc2O)cc1 [Deferasirox] (top concentration 46.0829 µM) | 536 | 478 | 58.3% | 39.1% |
| COC1=CC=CC(=C1N)\C2=C\C(=O)C3=C(O2)C=CC=C3 (top concentration 46.0829 µM) | 432 | 495 | 42% | 59.1% |
| OC[C@H]1O[C@H](C[C@@H]1O)N2\C=C(F)/C(=O)NC2=O [Floxuridine] (top concentration 46.0829 µM) | 322 | 369 | 49.2% | 31.9% |
| O=C(Nc1cc(Cl)cc2c1[nH]c1cnccc12)c1cccnc1 [PS-1145] (top concentration 46.0829 µM) | 442 | 508 | 36.6% | 54.8% |
| Cn1cc(C[C@@H](N)C(=O)O)c2ccccc21 [Indoximod] (top concentration 23.0415 µM) | 629 | 471 | 125% | 84% |
| COc1ccc(-c2oc3cc(OC)ccc3c2C(=O)c2ccc(C#N)cc2)cc1 (top concentration 46.0829 µM) | 474 | 556 | 14.3% | 32.1% |
| Cc1ccc(NC(=O)c2cccc(N(C)C)c2)cc1NC(=O)c1ccc(O)cc1 (top concentration 46.0829 µM) | 360 | 491 | 32% | 52.5% |
| CN(C)C(=N)NC(=N)N [Metformin HCl] (top concentration 46.0829 µM) | 502 | 484 | 72.1% | 79.9% |
| C[N]1C=C(C2=C1C=CC=C2)\C3=C(\C(=O)NC3=O)C4=C5CC(CN)CC[N]5C6=C4C=CC=C6 (configuration not stated) [Ro-31-8425] (top concentration 46.0829 µM) | 364 | 489 | 2.44% | 6.88% |
| CC(=O)N1CCN(c2ccc(OCc3nn(C)c(C)c3-c3cccc4c(CCCOc5cc(C)c(Cl)c(C)c5)c(C(=O)O)n(Cc5cccnc5)c34)cc2)CC1 (top concentration 46.0829 µM) | 425 | 498 | 48.8% | 26.9% |
| NC/1=N/C(=O)N(/C=N1)[C@@H]2O[C@H](CO)[C@@H](O)[C@H]2O [5-Azacitidine] (top concentration 46.0829 µM) | 501 | 392 | 31.6% | 19.9% |
| COc1cccc2c(NCc3ccccc3)nc(-n3c(N)nc4ccccc43)nc12 (top concentration 46.0829 µM) | 425 | 424 | 1.2% | 0.276% |
| O=C(Nc1ncc(SCCN2CCCC2)s1)[C@]1(c2ccc([S+](=O)([O-])C3CC3)cc2)C[C@H]1C1CCCCC1 (top concentration 46.0829 µM) | 511 | 510 | 2.7% | 3.97% |
